Reference: patent US11034672B1, “Tyrosine kinase inhibitor compositions, methods of making and methods of use” (Black Diamond Therapeutics, Inc., priority 2018, dated 2021)
Each block holds one compound with its values, some of them ahead of it.

Legend:
[1] = test system: covalently-activated EGFR variants; test: Covalent dimer formation, Western blot under non-reducing conditions; format: cell-based
[2] = test system: cells having the EGFR-Vii mutation; test: Proliferation of cells having the EGFR-Vii mutation (FIG. 18); format: cell-based
Protocol: (§1) EC50 values were determined with the same application.

[3] = test system: HER2 extracellular variants; test: Covalent dimer formation of HER2 extracellular variants, Western blot; format: cell-based; settings: Type I inhibitors
BaF3-HER2-Δ16 cells = test: Proliferation of BaF3 cells driven by HER2-Δ16; format: cell-based, murine; settings: sub-saturating concentrations
GBM = settings: in combination with radiation and temozolomide; cited from earlier work
[4] = test system: cells expressing ErbB ectodomain variants
HER2 S310F [5] = test: Tumor pHER2/pERK AlphaLisa in mice bearing HER2 S310F BaF3 tumors (Examples 15-18); format: in vivo; settings: two day acute oral dosing, 15 mg/kg; at peak plasma levels
Protocol: (§2) Following the second dose, tumors were collected at 2 hours, 5 hours, 12 hours and 24 hours, and analyzed for both pHER2 activity and pERK activity via AlphaLisa. Plasma was also collected at these time points and analayzed for the presence of Compound No. 21 to determine pharmacokinetic profile. The tumor tissue was cut and homogenized using the Precellys Soft Tissue Homogenizing kit (KT03961-1-00.3.2) containing T-PER tissue protein extraction reagent (Thermo Scientific #78510), supplemented with Protease Inhibitor (Sigma P8340), and Phosphatase Inhibitors II and III (Sigma P5726 and P0044). Tissue samples were homogenized in the Precellys machine by spinning two times for one minute each. Sample tubes were centrifuged for 5 min at 15,000 rpm at 4° C. The supernatant was transferred to a fresh microtube and spun again for 5 minutes at 15,000 rpm at 4° C. Supernatant was then transferred to a fresh microtube and placed on ice. The protein concentration of the supernatant was measured using the BCA reagent Kit (Thermo Scientific #23225). Tumor tissue-derived lysates were analyzed for either HER2 activity or EGFR activity by detection of pHER2 (Tyr1221/1222) or pERK (Thr202/Tyr204) phosphosites, respectively, via AlphaLisa. Briefly, tumor Lysates were diluted to 0.5 ug/ul in 1× diluted SureFire Ultra Kit Lysis Buffer (5× supplied stock) supplemented with Protease Inhibitor (Sigma P8340) and Phosphatase Inhibitor II and III (Sigma P5726 and P0044). 10 ul of total tumor lysate was added per well in triplicate to a 384-well Opti-plate (Perkin Elmer #6007290). Activation Buffer was diluted 25-fold in combined Reaction Buffer 1 and Reaction Buffer 2, and acceptor beads were diluted 50-fold in the combined Reaction Buffers. 5 ul/well of the Acceptor bead:Reaction buffer mixture was added to each well.
as §2, with “No. 5” for “No. 21”, “Buffer (X” for “Buffer (5×”
To determine the ability of Compound No. 118 to inhibit tumor growth and induce tumor regression in vivo, a mouse tumor model containing the HER2 S310F mutation was used. Athymic nude mice from Charles River Labs bearing HER2 S310F BaF3 tumors were treated with two day acute oral dosing of Compound No. 118 at 15 mg/kg. […]

EGFR V3 [6] = biological target: T1, EGFR V3 (Homo sapiens, UniProt P00533, DELINS30-297G); test: Activity for inhibiting EGFR (Table A), EGFR V3 (EGFR-Viii); format: cell-based; settings: read-out: EGFR V3, potency code (IC50)
T1 construct: expressed in transfected cells; host or cells: BaF3 (murine pro-B), retroviral pMXs-IRES-Blasticidin
T1 sequence (P00533 with tags, fused parts or gaps DELINS30-297G): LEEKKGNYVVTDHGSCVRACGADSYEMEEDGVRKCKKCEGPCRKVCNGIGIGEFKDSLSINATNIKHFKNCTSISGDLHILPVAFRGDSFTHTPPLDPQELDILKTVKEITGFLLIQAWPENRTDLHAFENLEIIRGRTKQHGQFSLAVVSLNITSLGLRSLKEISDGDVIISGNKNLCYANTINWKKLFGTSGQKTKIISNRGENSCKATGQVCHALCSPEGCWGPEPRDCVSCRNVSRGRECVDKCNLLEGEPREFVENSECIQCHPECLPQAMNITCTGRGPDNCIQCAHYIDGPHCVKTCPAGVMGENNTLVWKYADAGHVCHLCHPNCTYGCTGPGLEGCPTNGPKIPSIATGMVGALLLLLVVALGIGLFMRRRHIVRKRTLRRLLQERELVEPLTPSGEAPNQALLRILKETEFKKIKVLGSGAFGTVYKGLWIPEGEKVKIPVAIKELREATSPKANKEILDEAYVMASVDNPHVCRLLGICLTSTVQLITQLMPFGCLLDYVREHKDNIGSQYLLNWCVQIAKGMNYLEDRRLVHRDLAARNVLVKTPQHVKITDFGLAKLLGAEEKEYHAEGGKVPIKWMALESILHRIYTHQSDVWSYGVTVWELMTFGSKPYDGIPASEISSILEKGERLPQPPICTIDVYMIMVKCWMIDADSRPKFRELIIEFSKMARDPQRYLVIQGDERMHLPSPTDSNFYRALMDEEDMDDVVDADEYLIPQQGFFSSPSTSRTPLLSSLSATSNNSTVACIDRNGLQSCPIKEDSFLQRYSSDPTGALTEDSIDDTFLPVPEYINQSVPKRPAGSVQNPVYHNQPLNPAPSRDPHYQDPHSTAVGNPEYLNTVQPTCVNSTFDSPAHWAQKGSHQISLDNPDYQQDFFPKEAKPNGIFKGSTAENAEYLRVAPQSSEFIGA

EGFR WT [7] = biological target: T2, EGFR WT (Homo sapiens, UniProt P00533); test: Activity for inhibiting EGFR (Table A), EGFR WT; format: cell-based; settings: read-out: EGFR WT, potency code (IC50)
HER2 YVMA [8] = biological target: T3, HER2 YVMA (Homo sapiens, UniProt P04626, INS775YVMA); test: Activity for inhibiting HER2 (Table B), HER2 YVMA; format: cell-based; settings: read-out: HER2 YVMA, potency code (IC50)
T3 construct: expressed in transfected cells; host or cells: BaF3 (murine pro-B)
T3 sequence (P04626 with tags, fused parts or gaps INS775YVMA): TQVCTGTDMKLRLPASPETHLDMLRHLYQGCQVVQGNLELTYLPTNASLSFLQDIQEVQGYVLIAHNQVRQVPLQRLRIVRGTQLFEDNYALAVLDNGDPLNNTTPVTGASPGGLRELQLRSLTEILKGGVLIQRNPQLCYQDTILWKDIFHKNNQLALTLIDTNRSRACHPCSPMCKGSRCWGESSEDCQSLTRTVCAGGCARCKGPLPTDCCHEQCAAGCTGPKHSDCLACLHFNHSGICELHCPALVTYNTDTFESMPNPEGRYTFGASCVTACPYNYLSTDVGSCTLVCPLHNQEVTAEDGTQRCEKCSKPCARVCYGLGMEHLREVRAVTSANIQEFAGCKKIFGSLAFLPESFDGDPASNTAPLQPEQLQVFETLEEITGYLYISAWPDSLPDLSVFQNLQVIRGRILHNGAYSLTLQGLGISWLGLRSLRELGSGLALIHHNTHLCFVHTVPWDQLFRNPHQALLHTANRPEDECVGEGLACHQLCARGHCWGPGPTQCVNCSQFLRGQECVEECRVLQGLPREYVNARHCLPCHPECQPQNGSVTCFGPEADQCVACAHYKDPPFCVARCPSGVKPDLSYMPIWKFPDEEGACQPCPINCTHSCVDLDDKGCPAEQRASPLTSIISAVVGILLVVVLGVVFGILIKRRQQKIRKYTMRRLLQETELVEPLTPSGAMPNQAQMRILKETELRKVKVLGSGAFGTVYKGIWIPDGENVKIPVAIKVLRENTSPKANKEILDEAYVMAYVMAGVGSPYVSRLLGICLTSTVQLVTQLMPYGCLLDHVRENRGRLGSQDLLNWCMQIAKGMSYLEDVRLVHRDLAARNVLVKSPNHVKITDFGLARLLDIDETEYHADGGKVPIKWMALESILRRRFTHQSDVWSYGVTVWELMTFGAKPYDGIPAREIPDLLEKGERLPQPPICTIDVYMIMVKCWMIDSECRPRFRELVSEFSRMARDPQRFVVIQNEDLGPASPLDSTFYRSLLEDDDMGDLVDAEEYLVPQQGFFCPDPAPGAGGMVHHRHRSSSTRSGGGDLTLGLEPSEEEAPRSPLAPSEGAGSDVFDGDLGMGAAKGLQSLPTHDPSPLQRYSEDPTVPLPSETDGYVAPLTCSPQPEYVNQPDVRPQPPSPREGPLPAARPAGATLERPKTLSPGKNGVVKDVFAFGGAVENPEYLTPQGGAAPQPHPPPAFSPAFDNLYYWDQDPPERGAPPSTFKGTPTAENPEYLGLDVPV
Protocol: as §1

EGFR WT [9] = biological target: T2, EGFR WT; test: BaF3 cell proliferation assay, EGFR WT (Table A); format: cell-based; settings: potency code, 3 days, CellTiterGlo, read-out: EGFR WT (Activity for Inhibiting EGFR)
How it was run: (§3)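 Readout: EC50 for BaF3 proliferation. Cells stably expressing the receptor variant were generated by retrovirus and IL-3 independence.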

HER2 YVMA [10] = biological target: T3, HER2 YVMA; test: BaF3 cell proliferation assay, HER2 YVMA (Table B); format: cell-based; settings: potency code, 3 days, CellTiterGlo, read-out: HER2 YVMA (Activity for Inhibiting HER2)
EGFR V3 [11] = biological target: T1, EGFR V3; test: BaF3 cell proliferation assay, EGFR V3 (Table A); format: cell-based; settings: potency code, 3 days, CellTiterGlo, read-out: EGFR V3 (Activity for Inhibiting EGFR)
How it was run: as §3

HER2 S310F [12] = biological target: T4, HER2 S310F (Homo sapiens, UniProt P04626, S310F); test: Activity for inhibiting HER2 (Table B), HER2 S310F; format: cell-based; settings: read-out: HER2 S310F, potency code (IC50)
T4 construct: expressed in transfected cells; host or cells: BaF3 (murine pro-B)
T4 sequence (P04626 23-1255 S310F): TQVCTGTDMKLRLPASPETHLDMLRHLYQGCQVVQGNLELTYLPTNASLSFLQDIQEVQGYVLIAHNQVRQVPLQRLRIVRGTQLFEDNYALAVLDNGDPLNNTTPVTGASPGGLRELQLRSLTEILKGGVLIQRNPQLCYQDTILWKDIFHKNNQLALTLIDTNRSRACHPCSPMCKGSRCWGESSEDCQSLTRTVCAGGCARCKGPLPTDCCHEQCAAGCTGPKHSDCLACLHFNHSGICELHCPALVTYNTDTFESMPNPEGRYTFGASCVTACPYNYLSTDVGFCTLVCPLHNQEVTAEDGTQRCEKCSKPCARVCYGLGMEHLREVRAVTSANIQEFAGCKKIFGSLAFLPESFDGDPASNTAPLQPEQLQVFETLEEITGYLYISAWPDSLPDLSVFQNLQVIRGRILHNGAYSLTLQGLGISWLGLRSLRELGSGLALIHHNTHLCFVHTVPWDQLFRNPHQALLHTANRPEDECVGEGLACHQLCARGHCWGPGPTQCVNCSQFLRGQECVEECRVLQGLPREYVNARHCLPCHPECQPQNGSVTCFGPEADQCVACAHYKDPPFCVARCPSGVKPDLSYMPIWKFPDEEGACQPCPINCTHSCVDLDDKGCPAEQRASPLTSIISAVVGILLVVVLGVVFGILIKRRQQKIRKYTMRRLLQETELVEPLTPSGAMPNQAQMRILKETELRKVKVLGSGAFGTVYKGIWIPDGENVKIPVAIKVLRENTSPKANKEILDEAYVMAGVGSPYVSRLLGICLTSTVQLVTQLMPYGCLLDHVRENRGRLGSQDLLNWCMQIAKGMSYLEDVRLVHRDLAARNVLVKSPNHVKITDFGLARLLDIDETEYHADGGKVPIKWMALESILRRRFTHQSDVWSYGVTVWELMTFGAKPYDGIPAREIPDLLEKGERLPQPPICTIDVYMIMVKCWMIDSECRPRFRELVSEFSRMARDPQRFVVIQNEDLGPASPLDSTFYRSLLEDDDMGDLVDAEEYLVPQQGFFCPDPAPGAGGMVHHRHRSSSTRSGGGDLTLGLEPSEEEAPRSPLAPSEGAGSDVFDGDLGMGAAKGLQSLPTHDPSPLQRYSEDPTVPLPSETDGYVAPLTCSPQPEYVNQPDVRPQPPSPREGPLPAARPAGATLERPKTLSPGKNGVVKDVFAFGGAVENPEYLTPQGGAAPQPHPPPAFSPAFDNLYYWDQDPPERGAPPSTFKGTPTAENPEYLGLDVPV
Protocol: as §1

HER2 S310F [13] = biological target: T4, HER2 S310F; test: BaF3 cell proliferation assay, HER2 S310F (Table B); format: cell-based; settings: potency code, 3 days, CellTiterGlo, read-out: HER2 S310F (Activity for Inhibiting HER2)
HER2 WT [14] = biological target: T5, HER2 WT (Homo sapiens, UniProt P04626); test: Activity for inhibiting HER2 (Table B), HER2 WT; format: cell-based
T5 sequence (P04626 23-1255): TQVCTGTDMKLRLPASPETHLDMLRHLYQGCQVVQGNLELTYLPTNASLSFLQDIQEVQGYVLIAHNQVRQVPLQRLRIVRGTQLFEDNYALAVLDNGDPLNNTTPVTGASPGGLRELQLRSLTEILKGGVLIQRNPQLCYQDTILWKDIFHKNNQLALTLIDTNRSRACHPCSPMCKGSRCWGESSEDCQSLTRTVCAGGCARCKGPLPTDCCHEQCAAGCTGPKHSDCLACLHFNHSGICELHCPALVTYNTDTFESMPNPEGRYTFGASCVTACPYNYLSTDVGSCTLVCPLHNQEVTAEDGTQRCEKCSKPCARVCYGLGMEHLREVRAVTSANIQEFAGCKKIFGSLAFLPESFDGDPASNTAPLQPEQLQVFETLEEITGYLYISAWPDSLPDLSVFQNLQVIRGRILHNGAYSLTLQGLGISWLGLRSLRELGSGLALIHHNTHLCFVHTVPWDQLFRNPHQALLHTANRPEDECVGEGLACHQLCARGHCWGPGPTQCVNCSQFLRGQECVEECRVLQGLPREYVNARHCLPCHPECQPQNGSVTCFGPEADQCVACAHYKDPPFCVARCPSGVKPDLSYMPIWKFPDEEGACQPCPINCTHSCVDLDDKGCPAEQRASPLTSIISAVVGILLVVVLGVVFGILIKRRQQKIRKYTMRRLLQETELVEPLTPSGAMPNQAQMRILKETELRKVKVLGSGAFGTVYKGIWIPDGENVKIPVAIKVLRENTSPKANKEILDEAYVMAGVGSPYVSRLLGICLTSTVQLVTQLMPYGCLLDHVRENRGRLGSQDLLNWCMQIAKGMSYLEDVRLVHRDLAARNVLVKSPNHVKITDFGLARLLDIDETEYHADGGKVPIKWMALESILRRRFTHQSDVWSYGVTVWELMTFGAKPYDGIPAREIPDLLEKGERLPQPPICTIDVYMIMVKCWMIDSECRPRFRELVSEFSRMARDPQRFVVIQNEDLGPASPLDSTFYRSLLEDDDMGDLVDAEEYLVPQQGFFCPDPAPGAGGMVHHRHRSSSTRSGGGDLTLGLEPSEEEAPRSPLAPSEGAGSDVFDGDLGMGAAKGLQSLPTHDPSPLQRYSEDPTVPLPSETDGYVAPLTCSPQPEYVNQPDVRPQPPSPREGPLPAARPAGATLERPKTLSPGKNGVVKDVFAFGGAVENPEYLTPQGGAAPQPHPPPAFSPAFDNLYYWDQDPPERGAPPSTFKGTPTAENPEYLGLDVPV

HER2 WT [15] = biological target: T5, HER2 WT; test: BaF3 cell proliferation assay, HER2 WT (Table B); format: cell-based; settings: potency code, 3 days, CellTiterGlo, read-out: HER2 WT (Activity for Inhibiting HER2)

SMILES: C=CC(=O)Nc1cccc(Nc2nc(Nc3ccc(N4CCN(C(C)=O)CC4)cc3OC)ncc2C(F)(F)F)c1 [CO-1686]
Induced dimers [1]: Yes

SMILES: CN(C)C/C=C/C(=O)Nc1cc2c(Nc3ccc(F)c(Cl)c3)ncnc2cc1C#CC1[C@H]2COC[C@@H]12 (some centres unmarked) [NT-113]
dimerization for covalently activated ErbB receptors ([1]; FIG. 18 legend): induces dimerization | cellular proliferation in response to the inhibitor [2]: no evidence for increased cellular proliferation

SMILES: CCOc1cc2ncc(C#N)c(Nc3ccc(F)c(Cl)c3)c2cc1NC(=O)/C=C/CN(C)C [Pelitinib, pelitinib]
Induced dimers [1]: Yes

SMILES: CNC(=O)CN1CCC(Oc2cc3c(Nc4cccc(Cl)c4F)ncnc3cc2OC)CC1 [sapitinib]
covalent dimers for HER2 extracellular variants [3]: induce the expression of covalent dimers | proliferation of BaF3 cells driven by HER2-Δ16 (BaF3-HER2-Δ16 cells): paradoxically stimulate the proliferation

SMILES: C=CC(=O)Nc1cccc(Oc2nc(Nc3ccc(N4CCN(C)CC4)cc3OC)ncc2Cl)c1 [WZ4002]
Induced dimers [1]: Yes

SMILES: C=CC(=O)Nc1cccc(Sc2nc(Nc3ccc(N4CCN(C)CC4)cc3)ncc2Cl)c1 [WZ8040]
Induced dimers [1]: Yes

SMILES: C#Cc1cccc(Nc2ncnc3cc(OCCOC)c(OCCOC)cc23)c1 [Erlotinib, erlotinib]
median OS (mOS) (GBM): 8.6 months | median PFS (mPFS) (GBM): 2.8 months

SMILES: CCOc1cc2ncc(C#N)c(Nc3ccc(OCc4ccccn4)c(Cl)c3)c2cc1NC(=O)/C=C/CN(C)C [Neratinib, neratinib]
paradoxical activation [4]: devoid of paradoxical activation

SMILES: C=CC(=O)Nc1cccc(Oc2nc(Nc3ccc(N4CCN(C)CC4)cc3)ncc2Cl)c1 [WZ3146]
Induced dimers [1]: Yes

IC50 (EGFR V3 [6]): 0.02 to 0.03 µM | IC50 (EGFR WT [7]): 0.2 to 0.3 µM | IC50 (HER2 YVMA [8]): 0.02 to 0.03 µM | IC50 (EGFR WT [9]): 0.2 to 0.3 µM | IC50 (HER2 YVMA [10]): 0.02 to 0.03 µM | IC50 (EGFR V3 [11]): 0.02 to 0.03 µM | IC50 (HER2 S310F [12]): 0.01 to 0.02 µM | IC50 (HER2 S310F [13]): 0.01 to 0.02 µM
SMILES: C=CC(=O)Nc1cc2c(Nc3ccc(OCc4ccccn4)c(Cl)c3)ncnc2cc1OCCCN1CC(OC)C1 [compound 118]
pERK1/2 (Thr202/Tyr204) in tumors (HER2 S310F [5]): reduction | pHER2 (Tyr1221/1222) in tumors (HER2 S310F [5]): reduction

IC50 (EGFR V3 [6]): 0.03 to 0.05 µM | IC50 (EGFR WT [7]): 0.3 to 0.5 µM | IC50 (HER2 YVMA [8]): 0.03 to 0.05 µM | IC50 (EGFR WT [9]): 0.3 to 0.5 µM | IC50 (HER2 WT [14]; Table B, read-out: HER2 WT, potency code (IC50)): 0.01 to 0.02 µM | IC50 (HER2 WT [14]; text lists of compounds, read-out: IC50 value for inhibiting wild-type HER2): ≤ 0.02 µM | IC50 (HER2 YVMA [10]): 0.03 to 0.05 µM | IC50 (HER2 WT [15]): 0.01 to 0.02 µM | IC50 (EGFR V3 [11]): 0.03 to 0.05 µM | IC50 (HER2 S310F [12]): 0.02 to 0.03 µM | IC50 (HER2 S310F [13]): 0.02 to 0.03 µM
SMILES: C=CC(=O)Nc1cc2c(Nc3ccc(OCc4cccc(F)c4)c(Cl)c3)ncnc2cc1OCCN1CCOCC1 [compound 27]
pERK1/2 (Thr202/Tyr204) in tumors (HER2 S310F [5]): reduction | pHER2 (Tyr1221/1222) in tumors (HER2 S310F [5]): reduction
